Assay results taken from patent US9499550B2 (BRISTOL-MYERS SQUIBB COMPANY, priority 2012, dated 2016).
pEC50: −log10 of the molar value. Read-outs that look alike come from different tables or passages of the source.

Legend:
[1] = test system: HCV genotype 1b (Con1) replicon in HUH-7 cells; experiment: HCV replicon luciferase reporter assay, genotype 1b; type: cell-based; details: Hepatitis C virus, Huh-7, 72 h, HCV genotype 1b replicon luciferase, 3 days incubation, read-out: LE_1b (EC50, range)
How it was run: (§1)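 Replicon inhibition for both genotypes was measured as Renilla luciferase signal (EnduRen, 7.5 μM final, 2 h) after 3-day, 37° C exposure of replicon-bearing HUH-7 cells in 4% FCS DMEM, 0.5% DMSO. The 1b construct carries S1179I; the 1a H77 construct carries P1496L and S2204I. Twenty-point, 3-fold dilutions were fitted four-parametrically for EC50, and CC50 was taken from multiplexed Cell Titer-Blue.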

[2] = test system: HCV genotype 1a (H77 strain) replicon in HUH-7 cells; experiment: HCV replicon luciferase reporter assay, genotype 1a; type: cell-based; details: Hepatitis C virus, Huh-7, 72 h, HCV genotype 1a replicon luciferase, 3 days incubation, read-out: LE_1a (EC50, range)
How it was run: as §1

Structure (SMILES)	pEC50 [1]	pEC50 [2]	pEC50 ([1]; GETYPE1B)	pEC50 ([2]; GETYPE1A)
COc1ccc2c(O[C@@H]3C[C@H]4C(=O)N[C@]5(C(=O)NS(=O)(=O)C6(C)CC6)C[C@H]5/C=C\CC[C@@H](C)C[C@@H](C)[C@H](NC(=O)OC(C)(C)C)C(=O)N4C3)nc(-c3ccc(C(C)(C)C)cc3)cc2c1 [Compound 4078, tert-butyl (2R,6S,7R,9R,13aS,14aR,16aS,Z)-2-(3-(4-tert-butylphenyl)-6-methoxyisoquinolin-1-yloxy)-7,9-dimethyl-14a-(1-methylcyclopropylsulfonylcarbamoyl)-5,16-dioxo-1,2,3,5,6,7,8,9,10,11,13a,14,14a,15,16,16a-hexadecahydrocyclopropa[e]pyrrolo[1,2-a][1,4]diazacyclopentadecin-6-ylcarbamate]	6.99 to 8.32	6.99 to 8.32	–	–
COc1ccc2c(O[C@@H]3C[C@H]4C(=O)N[C@]5(C(=O)NS(=O)(=O)C6(C)CC6)C[C@H]5/C=C\CC[C@@H](C)C[C@@H](C)[C@H](NC(=O)OC(C)(C)C(F)(F)F)C(=O)N4C3)nc(-c3ccc(C(C)(C)C)cc3)cc2c1 [Compound 4079]	–	–	6.99 to 8.32	6.99 to 8.32
COc1ccc2c(O[C@@H]3C[C@H]4C(=O)N[C@]5(C(=O)NS(=O)(=O)C6(C)CC6)C[C@H]5/C=C\CC[C@@H](C)C[C@@H](C)[C@H](NC(=O)OC(C)(C)C)C(=O)N4C3)ncc(OC)c2c1 [Compound 4080, tert-butyl (2R,6S,7R,9R,13aS,14aR,16aS,Z)-2-(4,6-dimethoxyisoquinolin-1-yloxy)-7,9-dimethyl-14a-(1-methylcyclopropylsulfonylcarbamoyl)-5,16-dioxo-1,2,3,5,6,7,8,9,10,11,13a,14,14a,15,16,16a-hexadecahydrocyclopropa[e]pyrrolo[1,2-a][1,4]diazacyclopentadecin-6-ylcarbamate]	> 8.26	> 8.26	–	–
COc1ccc2c(O[C@@H]3C[C@H]4C(=O)N[C@]5(C(=O)NS(=O)(=O)C6(C)CC6)C[C@H]5/C=C\CC[C@@H](C)C[C@@H](C)[C@H](NC(=O)OC(C)(C)C(F)(F)F)C(=O)N4C3)ncc(OC)c2c1 [Compound 4081]	–	–	> 8.26	> 8.26
COc1cnc(O[C@@H]2C[C@H]3C(=O)N[C@]4(C(=O)NS(=O)(=O)C5(CF)CC5)C[C@H]4/C=C\CC[C@@H](C)C[C@@H](C)[C@H](NC(=O)OC(C)(C)C)C(=O)N3C2)c2cc(F)ccc12 [Compound 4082, tert-butyl (2R,6S,7R,9R,13aS,14aR,16aS,Z)-2-(7-fluoro-4-methoxyisoquinolin-1-yloxy)-14a-(1-(fluoromethyl)cyclopropylsulfonylcarbamoyl)-7,9-dimethyl-5,16-dioxo-1,2,3,5,6,7,8,9,10,11,13a,14,14a,15,16,16a-hexadecahydrocyclopropa[e]pyrrolo[1,2-a][1,4]diazacyclopentadecin-6-ylcarbamate]	> 8.26	> 8.26	–	–
COc1cnc(O[C@@H]2C[C@H]3C(=O)N[C@]4(C(=O)NS(=O)(=O)C5(CF)CC5)C[C@H]4/C=C\CC[C@@H](C)C[C@@H](C)[C@H](NC(=O)OC(C)(C)C(F)(F)F)C(=O)N3C2)c2cc(F)ccc12 [Compound 4083]	–	–	> 8.26	> 8.26
COc1cc2c(OC)cnc(O[C@@H]3C[C@H]4C(=O)N[C@]5(C(=O)NS(=O)(=O)C6(CF)CC6)C[C@H]5/C=C\CC[C@@H](C)C[C@@H](C)[C@H](NC(=O)OC(C)(C)C)C(=O)N4C3)c2cc1F [Compound 4084, tert-butyl (2R,6S,7R,9R,13aS,14aR,16aS,Z)-2-(7-fluoro-4,6-dimethoxyisoquinolin-1-yloxy)-14a-(1-(fluoromethyl)cyclopropylsulfonylcarbamoyl)-7,9-dimethyl-5,16-dioxo-1,2,3,5,6,7,8,9,10,11,13a,14,14a,15,16,16a-hexadecahydrocyclopropa[e]pyrrolo[1,2-a][1,4]diazacyclopentadecin-6-ylcarbamate]	> 8.26	> 8.26	–	–
COc1ccc2nc(O[C@@H]3C[C@H]4C(=O)N[C@]5(C(=O)NS(=O)(=O)C6(C)CC6)C[C@H]5/C=C\CC[C@@H](C)C[C@@H](C)[C@H](NC(=O)OC(C)(C)C)C(=O)N4C3)cnc2c1 [Compound 4085, tert-butyl (2R,6S,7R,9R,13aS,14aR,16aS,Z)-2-(6-methoxyquinoxalin-2-yloxy)-7,9-dimethyl-14a-(1-methylcyclopropylsulfonylcarbamoyl)-5,16-dioxo-1,2,3,5,6,7,8,9,10,11,13a,14,14a,15,16,16a-hexadecahydrocyclopropa[e]pyrrolo[1,2-a][1,4]diazacyclopentadecin-6-ylcarbamate]	> 8.26	6.99 to 8.32	–	–
COc1ccc2ncc(O[C@@H]3C[C@H]4C(=O)N[C@]5(C(=O)NS(=O)(=O)C6(C)CC6)C[C@H]5/C=C\CC[C@@H](C)C[C@@H](C)[C@H](NC(=O)OC(C)(C)C)C(=O)N4C3)nc2c1 [Compound 4086, tert-butyl (2R,6S,7R,9R,13aS,14aR,16aS,Z)-2-(7-methoxyquinoxalin-2-yloxy)-7,9-dimethyl-14a-(1-methylcyclopropylsulfonylcarbamoyl)-5,16-dioxo-1,2,3,5,6,7,8,9,10,11,13a,14,14a,15,16,16a-hexadecahydrocyclopropa[e]pyrrolo[1,2-a][1,4]diazacyclopentadecin-6-ylcarbamate]	> 8.26	> 8.26	–	–
COc1ccc2c(O[C@@H]3C[C@H]4C(=O)N[C@]5(C(=O)NS(=O)(=O)C6(C)CC6)C[C@H]5/C=C\CC[C@@H](C)C[C@@H](C)[C@H](NC(=O)OC(C)(C)C)C(=O)N4C3)ncc(-c3ccc(OC)nc3)c2c1 [Compound 4087, tert-butyl (2R,6S,7R,9R,13aS,14aR,16aS,Z)-2-(6-methoxy-4-(6-methoxypyridin-3-yl)isoquinolin-1-yloxy)-7,9-dimethyl-14a-(1-methylcyclopropylsulfonylcarbamoyl)-5,16-dioxo-1,2,3,5,6,7,8,9,10,11,13a,14,14a,15,16,16a-hexadecahydrocyclopropa[e]pyrrolo[1,2-a][1,4]diazacyclopentadecin-6-ylcarbamate]	> 8.26	> 8.26	–	–
COc1ccc2ncc(O[C@@H]3C[C@H]4C(=O)N[C@]5(C(=O)NS(=O)(=O)C6(CF)CC6)C[C@H]5/C=C\CC[C@@H](C)C[C@@H](C)[C@H](NC(=O)OC(C)(C)C(F)(F)F)C(=O)N4C3)nc2c1 [Compound 4088]	–	–	> 8.26	> 8.26
COc1ccc2ncc(O[C@@H]3C[C@H]4C(=O)N[C@]5(C(=O)NS(=O)(=O)C6(CF)CC6)C[C@H]5/C=C\CC[C@@H](C)C[C@@H](C)[C@H](NC(=O)OC(C)(C)C)C(=O)N4C3)nc2c1 [Compound 4089, tert-butyl (2R,6S,7R,9R,13aS,14aR,16aS,Z)-14a-(1-(fluoromethyl)cyclopropylsulfonylcarbamoyl)-2-(7-methoxyquinoxalin-2-yloxy)-7,9-dimethyl-5,16-dioxo-1,2,3,5,6,7,8,9,10,11,13a,14,14a,15,16,16a-hexadecahydrocyclopropa[e]pyrrolo[1,2-a][1,4]diazacyclopentadecin-6-ylcarbamate]	> 8.26	6.99 to 8.32	–	–
COc1cc2ccnc(O[C@@H]3C[C@H]4C(=O)N[C@]5(C(=O)NS(=O)(=O)C6(CF)CC6)C[C@H]5/C=C\CC[C@@H](C)C[C@@H](C)[C@H](NC(=O)C5(C(F)(F)F)CC5)C(=O)N4C3)c2cc1F [Compound 4090, (2R,6S,7R,9R,13aS,14aR,16aS,Z)-2-(7-fluoro-6-methoxyisoquinolin-1-yloxy)-N-(1-(fluoromethyl)cyclopropylsulfonyl)-7,9-dimethyl-5,16-dioxo-6-(1-(trifluoromethyl)cyclopropanecarboxamido)-1,2,3,5,6,7,8,9,10,11,13a,14,14a,15,16,16a-hexadecahydrocyclopropa[e]pyrrolo[1,2-a][1,4]diazacyclopentadecine-14a-carboxamide]	> 8.26	> 8.26	–	–
COc1cc2ccnc(O[C@@H]3C[C@H]4C(=O)N[C@]5(C(=O)NS(=O)(=O)C6(CF)CC6)C[C@H]5/C=C\CC[C@@H](C)C[C@@H](C)[C@H](NC(=O)C(C)(C)C(F)(F)F)C(=O)N4C3)c2cc1F [Compound 4091, (2R,6S,7R,9R,13aS,14aR,16aS,Z)-2-(7-fluoro-6-methoxyisoquinolin-1-yloxy)-N-(1-(fluoromethyl)cyclopropylsulfonyl)-7,9-dimethyl-5,16-dioxo-6-(3,3,3-trifluoro-2,2-dimethylpropanamido)-1,2,3,5,6,7,8,9,10,11,13a,14,14a,15,16,16a-hexadecahydrocyclopropa[e]pyrrolo[1,2-a][1,4]diazacyclopentadecine-14a-carboxamide]	> 8.26	> 8.26	–	–
COc1cc2ccnc(O[C@@H]3C[C@H]4C(=O)N[C@]5(C(=O)NS(=O)(=O)C6(C(F)F)CC6)C[C@H]5/C=C\CC[C@@H](C)C[C@@H](C)[C@H](NC(=O)OC(C)(C)C(F)(F)F)C(=O)N4C3)c2cc1F [Compound 4093]	–	–	> 8.26	> 8.26
COc1cc2c(OC)cnc(O[C@@H]3C[C@H]4C(=O)N[C@]5(C(=O)NS(=O)(=O)C6(C(F)F)CC6)C[C@H]5/C=C\CC[C@@H](C)C[C@@H](C)[C@H](NC(=O)OC(C)(C)C(F)(F)F)C(=O)N4C3)c2cc1F [Compound 4095]	–	–	> 8.26	> 8.26
